Measured values published in article PMC7232165 (Viruses, 2020).
Read-outs that look alike come from different tables or passages of the source.

How the values were obtained:
HIV-1NL4-3 = assay: Anti-HIV-1 assay in TZM-GFP cells (LTR-activated GFP expression); conditions: for EC50: read-out: EC50 (concentration of compound inhibiting HIV-1 replication by 50%); for antiviral activity against HIV-1 (in words): screened at 20 μM
TZM-GFP cells = assay: in vitro; assay type: cell-based; conditions: for CC50: TZM-GFP cells, 72 h, XTT, mean ± standard deviation, read-out: CC50 (concentration of compound causing 50% cell death)
in vitro = assay type: cell-based; conditions: human, TZM-GFP cells, 72 h, XTT; mean ± standard deviation; read-out: CC50 (concentration of compound causing 50% cell death)
[1] = biological target: covalently-crosslinked hexameric CA A14C/E45C/W184A/M185A (CA121) (Human immunodeficiency virus type 1 group M subtype B, UniProt P12493, A146C/E177C/M317A/W316A); assay: Thermal shift assay (TSA) for effect on HIV-1 CA hexamer stability; assay type: binding; conditions: compound 20 µM
[2] = Microsomal stability assay, human liver microsomes; assay type: in vitro ADME; conditions: for half-life at 1 µM: human liver microsomes
[3] = Microsomal stability assay, mouse liver microsomes; assay type: in vitro ADME
[4] = HLMs; cited from earlier work
[5] = Human immunodeficiency virus 1, 48 h

SMILES | EC50 (HIV-1NL4-3; [5]) [µM] | CC50 at 72 h (in vitro) [µM] | further results
COC(=O)C1CCCN1C(=O)C(NC(=O)Cn1c(=O)[nH]c2ccccc2c1=O)C(C)C (stereo not shown) [Compound 2] | > 20 | > 100 | antiviral activity against HIV-1 (in words) (HIV-1NL4-3): no significant antiviral activity; cytotoxicity (in words) (TZM-GFP cells; screened at 100 μM): no cytotoxicity
O=C(Cn1c(=O)[nH]c2ccccc2c1=O)N[C@@H](Cc1cccc2cc[nH]c12)C(=O)N1CCC[C@H]1C(=O)Nc1ccccc1 [Compound 9] | > 20 | > 100 | 
CN(C(=O)[C@H](Cc1ccccc1)NC(=O)Cn1c(=O)[nH]c2ccccc2c1=O)c1ccc(F)cc1 [Compound 13] |  |  | EC50 (HIV-1NL4-3): 8 ± 1.3 µM; antiviral activity against HIV-1 (in words) (HIV-1NL4-3): significant anti-HIV-1 activities; effect on CA hexamer stability (in words) [1]: moderate CA hexamer stabilizing effects; CC50 (TZM-GFP cells): > 100 µM
CCC(C)[C@H](NC(=O)Cn1c(=O)[nH]c2ccccc2c1=O)C(=O)N(C)c1ccccc1 (stereo partly shown) [Compound 18] |  |  | EC50 (HIV-1NL4-3): > 20 µM; CC50 (TZM-GFP cells): > 100 µM
COC(=O)[C@@H]1CCCN1C(=O)[C@H](CSCc1ccccc1)NC(=O)Cn1c(=O)[nH]c2ccccc2c1=O [Compound 6] | > 20 | > 100 | effect on CA hexamer stability (in words) [1]: no such effect was observed
CCC(C)[C@H](NC(=O)Cn1c(=O)[nH]c2ccccc2c1=O)C(=O)Nc1ccc(-c2nnn[nH]2)cc1 (stereo partly shown) [Compound 21] |  |  | EC50 (HIV-1NL4-3): > 20 µM; CC50 (TZM-GFP cells): > 100 µM
CC(C)C[C@H](NC(=O)Cn1c(=O)[nH]c2ccccc2c1=O)C(=O)N(C)c1ccccc1 [Compound 14] |  |  | EC50 (HIV-1NL4-3): > 20 µM; CC50 (TZM-GFP cells): > 100 µM
O=C(Cn1c(S)nnc1-c1ccccc1)NNc1ccc(-c2ccccc2)cc1 [Compound 36] | > 20 | > 100 | 
N#Cc1ccc(NNC(=O)Cn2c(S)nnc2-c2ccccc2)cc1 [Compound 25] | > 20 | > 100 | 
CCC(C)[C@H](NC(=O)Cn1c(=O)[nH]c2ccccc2c1=O)C(=O)Nc1ccccc1 (stereo partly shown) [Compound 19] |  |  | EC50 (HIV-1NL4-3): > 20 µM; CC50 (TZM-GFP cells): > 100 µM
Cc1ccc(-c2nnc(S)n2CC(=O)NNc2ccc(F)cc2)cc1 [Compound 28] | > 20 | > 100 | 
Cc1ccc(-c2nnc(S)n2CC(=O)NNc2ccc(C#N)cc2)cc1 [Compound 29] | > 20 | > 100 | 
Cc1ccc(-c2nnc(S)n2CC(=O)NNc2ccccc2)cc1 [Compound 27] | > 20 | ~100 | 
CN(NC(=O)Cn1c(S)nnc1-c1ccccc1)c1ccccc1 [Compound 39] | > 20 | > 50 | 
O=C(Cn1c(=O)[nH]c2ccccc2c1=O)N[C@@H](Cc1ccccc1)C(=O)Nc1ccccc1 [Compound 12] |  |  | EC50 (HIV-1NL4-3): > 20 µM; antiviral activity against HIV-1 (in words) (HIV-1NL4-3): did not show activity in either assay; effect on CA hexamer stability (in words) [1]: did not show activity in either assay; CC50 (TZM-GFP cells): < 100 µM
COC(=O)[C@@H]1CCCN1C(=O)CNC(=O)Cn1c(=O)[nH]c2ccccc2c1=O [Compound 3] | > 20 | > 100 | effect on CA hexamer stability (in words) [1]: complete loss of the CA hexamer stabilizing effect
CN(C(=O)[C@H](Cc1ccccc1)NC(=O)Cn1c(=O)[nH]c2ccccc2c1=O)c1ccccc1 [Compound 11] | 6.9 ± 0.8 | > 100 | antiviral activity against HIV-1 (in words) (HIV-1NL4-3): significant anti-HIV-1 activities; effect on CA hexamer stability (in words) [1]: moderate CA hexamer stabilizing effects
CCC(C)[C@H](NC(=O)Cn1c(=O)[nH]c2ccccc2c1=O)C(=O)N(C)c1ccc(Cl)cc1 (stereo partly shown) [Compound 20] |  |  | EC50 (HIV-1NL4-3): > 20 µM; CC50 (TZM-GFP cells): > 100 µM
O=C(Cn1c(=O)[nH]c2ccccc2c1=O)N[C@@H](Cc1ccccc1)C(=O)N1CCC[C@H]1C(=O)Nc1ccccc1 [Compound 10] | 1.6 ± 0.1 | > 100 | antiviral potency (EC50), fold less than PF74 (HIV-1NL4-3; relative to PF74 EC50 = 0.61 μM): 2.5 fold; antiviral activity against HIV-1 (in words) (HIV-1NL4-3): significant anti-HIV-1 activities; half-life (t1/2) in HLMs, fold longer than PF74 ([2]; HLMs, relative to PF74): 44 fold; half-life at 1 µM ([2]; pH 7.4, with Cobicistat 0.5 µM (CYP3A inhibitor), in the presence of CYP3A inhibitor Cobicistat 0.5 µM, read-out: Phase I metabolic stability t1/2, HLM (+Cobi)): > 120 min; half-life at 1 µM ([2]; pH 7.4, 1 µM compound, NADPH, read-out: Phase I metabolic stability t1/2, HLM): 31 min; half-life at 1 µM ([3]; pH 7.4, mouse liver microsomes, 1 µM compound, NADPH, read-out: Phase I metabolic stability t1/2, MLM): 2.9 min; half-life at 1 µM ([3]; pH 7.4, with Cobicistat 0.5 µM (CYP3A inhibitor), mouse liver microsomes, in the presence of CYP3A inhibitor Cobicistat 0.5 µM, read-out: Phase I metabolic stability t1/2, MLM (+Cobi)): 85 min; effect on CA hexamer stability (in words) [1]: moderate CA hexamer stabilizing effects
COC(=O)[C@@H]1CCCN1C(=O)[C@H](Cc1cccc2cc[nH]c12)NC(=O)Cn1c(=O)[nH]c2ccccc2c1=O [Compound 5] |  |  | EC50 (HIV-1NL4-3; TZM-GFP cells, MOI = 1, 48 h, mean ± standard deviation, at least two independent experiments): > 20 µM; CC50 (TZM-GFP cells): > 100 µM

SMILES | EC50 (HIV-1NL4-3; [5]) [µM] | CC50 at 72 h (in vitro) [µM] | further results
CC(C)(C)[C@H](NC(=O)Cn1c(=O)[nH]c2ccccc2c1=O)C(=O)Nc1ccccc1 [Compound 17] |  |  | EC50 (HIV-1NL4-3): > 20 µM; CC50 (TZM-GFP cells): > 100 µM
Cc1ccc(-c2nnc(S)n2CC(=O)NNc2ccc(-c3ccccc3)cc2)cc1 [Compound 30] | > 20 | > 100 | 
Cc1ccccc1-c1nnc(S)n1CC(=O)NNc1ccccc1 [Compound 32] | > 20 | > 100 | 
Cc1ccc(NNC(=O)Cn2c(S)nnc2-c2cccc3ccccc23)cc1 [Compound 37] | > 20 | > 100 | 
O=C(Cn1c(S)nnc1-c1ccccc1)NNc1ccccc1 [Compound 23] | > 20 | > 100 | 
N#Cc1ccc(NNC(=O)Cn2c(S)nnc2-c2cccc3ccccc23)cc1 [Compound 38] | > 20 | > 100 | 
CC(C)C[C@H](NC(=O)Cn1c(=O)[nH]c2ccccc2c1=O)C(=O)Nc1ccccc1 [Compound 15] |  |  | EC50 (HIV-1NL4-3): > 20 µM; CC50 (TZM-GFP cells): > 100 µM
COC(=O)[C@@H]1CCCN1C(=O)[C@H](Cc1cccc2cc[nH]c12)NC(=O)Cn1c(=O)[nH]c2ccccc2c1=O [Compound 4] | > 20 | < 100 | 
CCC(C)[C@H](NC(=O)Cn1c(=O)[nH]c2ccccc2c1=O)C(=O)N1CCC[C@H]1C(=O)OC (stereo partly shown) [Compound 7] | > 20 | > 100 | effect on CA hexamer stability (in words) [1]: no such effect was observed
O=C(Cn1c(=O)[nH]c2ccccc2c1=O)N[C@@H](CSCc1ccccc1)C(=O)N1CCC[C@H]1C(=O)Nc1ccccc1 [Compound 8] | > 20 | 44 ± 5 | 
Cc1ccccc1-c1nnc(S)n1CC(=O)NNc1ccc(C#N)cc1 [Compound 34] | > 20 | > 100 | 
O=C(Cn1c(S)nnc1-c1ccccc1)NNc1ccccn1 [Compound 22] | > 20 | > 100 | 
O=C(Cn1c(S)nnc1-c1cccc2ccccc12)NNc1ccccc1 [Compound 35] | > 20 | > 100 | 
Cc1[nH]c2ccccc2c1CC(=O)N[C@@H](Cc1ccccc1)C(=O)N(C)c1ccccc1 [Compound 1, PF74, reference compound] | 0.61 ± 0.2 |  | half-life (t1/2) in human liver microsomes [4]: less than 1 min
Cc1ccc(NNC(=O)Cn2c(S)nnc2-c2ccccc2C)cc1 [Compound 33] | > 20 | > 100 | 
O=C(Cn1c(S)nnc1-c1ccccc1)NNc1ccc(F)cc1 [Compound 24] | > 20 | > 100 | 
N#Cc1cccc(NNC(=O)Cn2c(S)nnc2-c2ccccc2)c1 [Compound 26] | > 20 | > 100 | 
Cc1ccc(N(C)C(=O)[C@@H](NC(=O)Cn2c(=O)[nH]c3ccccc3c2=O)C(C)(C)C)cc1 [Compound 16] |  |  | EC50 (HIV-1NL4-3): > 20 µM; CC50 (TZM-GFP cells): > 100 µM
Cc1ccc(-c2nnc(S)n2CC(=O)NNc2ccccn2)cc1 [Compound 31] | > 20 | > 100 | 
